Reference: PubChem BioAssay AID1918946 (Molecular Pharmacology Branch, DTP, NCI, 2023)
Values joined by “and” are separate entries in the source; they are usually repeats but may differ in a detail not shown here. Equal values may be shown once. Blank lines part the entries; values can stand above or below the molecule they belong to.

System: 885512-296-R-J2-PDC complex spheroid viability
Experiment: Anticancer human tumor 885512-296-R-J2-PDC patient-derived breast carcinoma cell line growth inhibition
Conditions: for viability, T/C: stronger effect = lower value
How it was run: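 Multicellular complex spheroids of tumor cells with human endothelial cells (HUVEC) and mesenchymal stem cells; the LSD1 inhibitor iadademstat was combined with standard-of-care or investigational agents. Top concentration at or near clinical Cmax, half-log dilutions; final DMSO ≤0.25%.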

[1] = curve of first compound, second compound 0.1 µM
[2] = curve of first compound, second compound 0.316 µM
[3] = curve of first compound, second compound 1 µM
[4] = curve of first compound, second compound 3.16 µM
[5] = curve of first compound, second compound 10 µM
[6] = second compound 0.1 µM, first compound 0.000316 µM
[7] = second compound 0.1 µM, first compound 0.001 µM
[8] = second compound 0.1 µM, first compound 0.00316 µM
[9] = second compound 0.1 µM, first compound 0.01 µM
[10] = second compound 0.1 µM, first compound 0.0316 µM
[11] = second compound 0.1 µM, first compound 0.1 µM
[12] = second compound 0.316 µM, first compound 0.000316 µM
[13] = second compound 0.316 µM, first compound 0.001 µM
[14] = second compound 0.316 µM, first compound 0.00316 µM
[15] = second compound 0.316 µM, first compound 0.01 µM
[16] = second compound 0.316 µM, first compound 0.0316 µM
[17] = second compound 0.316 µM, first compound 0.1 µM
[18] = second compound 1 µM, first compound 0.000316 µM
[19] = second compound 1 µM, first compound 0.001 µM
[20] = second compound 1 µM, first compound 0.00316 µM
[21] = second compound 1 µM, first compound 0.01 µM
[22] = second compound 1 µM, first compound 0.0316 µM
[23] = second compound 1 µM, first compound 0.1 µM
[24] = second compound 3.16 µM, first compound 0.000316 µM
[25] = second compound 3.16 µM, first compound 0.001 µM
[26] = second compound 3.16 µM, first compound 0.00316 µM
[27] = second compound 3.16 µM, first compound 0.01 µM
[28] = second compound 3.16 µM, first compound 0.0316 µM
[29] = second compound 3.16 µM, first compound 0.1 µM
[30] = second compound 10 µM, first compound 0.000316 µM
[31] = second compound 10 µM, first compound 0.001 µM
[32] = second compound 10 µM, first compound 0.00316 µM
[33] = second compound 10 µM, first compound 0.01 µM
[34] = second compound 10 µM, first compound 0.0316 µM
[35] = second compound 10 µM, first compound 0.1 µM
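Also: spheroids exposed to agents for 7 days before viability read.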

Structure (SMILES): CC(C)CC(NC(=O)CNC(=O)c1cc(Cl)ccc1Cl)B1OC(=O)CC(CC(=O)O)(C(=O)O)O1 (stereo not drawn) + NC1CCC(NC2CC2c2ccccc2)CC1
IC50 [1]: 6.41 nM | IC50 [2]: 6.9 nM | IC50 [3]: 6.61 nM | IC50 [4]: 6.51 nM | IC50 [5]: 5.07 nM | viability, T/C [6]: 148% | viability, T/C [7]: 136% | viability, T/C [8]: 102% | viability, T/C [9]: 16.9% | viability, T/C [10]: 4.82% | viability, T/C [11]: 8.2% | viability, T/C [12]: 125% | viability, T/C [13]: 126% | viability, T/C [14]: 106% | viability, T/C [15]: 23.3% | viability, T/C [16]: 3.92% | viability, T/C [17]: 3.86% | viability, T/C [18]: 121% | viability, T/C [19]: 131% | viability, T/C [20]: 103% | viability, T/C [21]: 20.4% | viability, T/C [22]: 4.02% | viability, T/C [23]: 6.64% | viability, T/C [24]: 124% | viability, T/C [25]: 117% | viability, T/C [26]: 110% | viability, T/C [27]: 14.4% | viability, T/C [28]: 5.03% | viability, T/C [29]: 1.02% | viability, T/C [30]: 107% | viability, T/C [31]: 107% | viability, T/C [32]: 76.3% | viability, T/C [33]: 12% | viability, T/C [34]: 2.47% | viability, T/C [35]: 0.56%

IC50 (curve of compound): 0.879 nM and < 0.316 nM
Structure (SMILES): CC(C)CC(NC(=O)C(Cc1ccccc1)NC(=O)c1cnccn1)B(O)O (stereo not drawn)
viability, T/C (compound 0.000316 µM): 99.8% and 17.9% | viability, T/C (compound 0.00316 µM): 2.61% and 0.22% | viability, T/C (compound 0.01 µM): 4.07% and 0.18% | viability, T/C (compound 0.0316 µM): 0.12% and 0.1% | viability, T/C (compound 0.1 µM): 3.52% and 0.14%

IC50 (curve of compound): 3310 nM and 1320 nM
Structure (SMILES): CC1(C)CCC(CN2CCN(c3ccc(C(=O)NS(=O)(=O)c4ccc(NCC5CCOCC5)c([N+](=O)[O-])c4)c(Oc4cnc5[nH]ccc5c4)c3)CC2)=C(c2ccc(Cl)cc2)C1
viability, T/C (compound 0.0316 µM): 121% and 95.1% | viability, T/C (compound 0.1 µM): 109% and 91% | viability, T/C (compound 0.316 µM): 89.3% and 82% | viability, T/C (compound 1 µM): 72.6% and 61.4% | viability, T/C (compound 3.16 µM): 63.1% and 19.3% | viability, T/C (compound 10 µM): 10.2% and 0.17%

Structure (SMILES): CC1COCCN1c1cc(C2(S(C)(=N)=O)CC2)nc(-c2ccnc3[nH]ccc23)n1 (stereo not drawn) + NC1CCC(NC2CC2c2ccccc2)CC1
IC50 [1]: 166 nM | IC50 [2]: 155 nM | IC50 [3]: 166 nM | IC50 [4]: 119 nM | IC50 [5]: 124 nM | viability, T/C [10]: 98.8% | viability, T/C [11]: 77.3% | viability, T/C (second compound 0.1 µM, first compound 0.316 µM): 15.1% | viability, T/C (second compound 0.1 µM, first compound 1 µM): 7.78% | viability, T/C (second compound 0.1 µM, first compound 3.16 µM): 9.98% | viability, T/C (second compound 0.1 µM, first compound 10 µM): 4.57% | viability, T/C [16]: 94.7% | viability, T/C [17]: 71.4% | viability, T/C (second compound 0.316 µM, first compound 0.316 µM): 15.3% | viability, T/C (second compound 0.316 µM, first compound 1 µM): 4.43% | viability, T/C (second compound 0.316 µM, first compound 3.16 µM): 4.53% | viability, T/C (second compound 0.316 µM, first compound 10 µM): 7.27% | viability, T/C [22]: 98.8% | viability, T/C [23]: 75.8% | viability, T/C (second compound 1 µM, first compound 0.316 µM): 17.4% | viability, T/C (second compound 1 µM, first compound 1 µM): 5.72% | viability, T/C (second compound 1 µM, first compound 3.16 µM): 7% | viability, T/C (second compound 1 µM, first compound 10 µM): 4.61% | viability, T/C [28]: 108% | viability, T/C [29]: 56.5% | viability, T/C (second compound 3.16 µM, first compound 0.316 µM): 13.4% | viability, T/C (second compound 3.16 µM, first compound 1 µM): 5.73% | viability, T/C (second compound 3.16 µM, first compound 3.16 µM): 4.8% | viability, T/C (second compound 3.16 µM, first compound 10 µM): 4.21% | viability, T/C [34]: 84.5% | viability, T/C [35]: 59.1% | viability, T/C (second compound 10 µM, first compound 0.316 µM): 9.91% | viability, T/C (second compound 10 µM, first compound 1 µM): 3.2% | viability, T/C (second compound 10 µM, first compound 3.16 µM): 3.14% | viability, T/C (second compound 10 µM, first compound 10 µM): 1.66%

Structure (SMILES): COc1cc(C2c3cc4c(cc3C(OC3OC5COC(C)OC5C(O)C3O)C3COC(=O)C23)OCO4)cc(OC)c1O (stereo not drawn) + NC1CCC(NC2CC2c2ccccc2)CC1
IC50 [1]: 67.8 nM | IC50 [2]: 60.8 nM | IC50 [3]: 66.8 nM | IC50 [4]: 77.6 nM | IC50 [5]: 52.8 nM | viability, T/C (second compound 0.1 µM, first compound 0.00949 µM): 118% | viability, T/C (second compound 0.1 µM, first compound 0.03 µM): 95.8% | viability, T/C (second compound 0.1 µM, first compound 0.0949 µM): 31.2% | viability, T/C (second compound 0.1 µM, first compound 0.3 µM): 11.3% | viability, T/C (second compound 0.1 µM, first compound 0.949 µM): 10.2% | viability, T/C (second compound 0.1 µM, first compound 3 µM): 11.3% | viability, T/C (second compound 0.316 µM, first compound 0.00949 µM): 108% | viability, T/C (second compound 0.316 µM, first compound 0.03 µM): 90.7% | viability, T/C (second compound 0.316 µM, first compound 0.0949 µM): 24.3% | viability, T/C (second compound 0.316 µM, first compound 0.3 µM): 11.8% | viability, T/C (second compound 0.316 µM, first compound 0.949 µM): 9.27% | viability, T/C (second compound 0.316 µM, first compound 3 µM): 8.79% | viability, T/C (second compound 1 µM, first compound 0.00949 µM): 104% | viability, T/C (second compound 1 µM, first compound 0.03 µM): 86.4% | viability, T/C (second compound 1 µM, first compound 0.0949 µM): 33.4% | viability, T/C (second compound 1 µM, first compound 0.3 µM): 13% | viability, T/C (second compound 1 µM, first compound 0.949 µM): 6.51% | viability, T/C (second compound 1 µM, first compound 3 µM): 4.74% | viability, T/C (second compound 3.16 µM, first compound 0.00949 µM): 98.9% | viability, T/C (second compound 3.16 µM, first compound 0.03 µM): 105% | viability, T/C (second compound 3.16 µM, first compound 0.0949 µM): 39% | viability, T/C (second compound 3.16 µM, first compound 0.3 µM): 10.7% | viability, T/C (second compound 3.16 µM, first compound 0.949 µM): 6.97% | viability, T/C (second compound 3.16 µM, first compound 3 µM): 9.62% | viability, T/C (second compound 10 µM, first compound 0.00949 µM): 90.8% | viability, T/C (second compound 10 µM, first compound 0.03 µM): 64.6% | viability, T/C (second compound 10 µM, first compound 0.0949 µM): 35% | viability, T/C (second compound 10 µM, first compound 0.3 µM): 14.2% | viability, T/C (second compound 10 µM, first compound 0.949 µM): 5.81% | viability, T/C (second compound 10 µM, first compound 3 µM): 4.68%

Structure (SMILES): CC[C@@]1(O)C(=O)OCc2c1cc1n(c2=O)Cc2cc3c(CN(C)C)c(O)ccc3nc2-1 + NC1CCC(NC2CC2c2ccccc2)CC1
IC50 [1]: 0.517 nM | IC50 [2]: 0.571 nM | IC50 [3]: 0.48 nM | IC50 [4]: 0.497 nM | IC50 [5]: 0.398 nM | viability, T/C [6]: 74% | viability, T/C [7]: 17.8% | viability, T/C [8]: 9.2% | viability, T/C [9]: 3.46% | viability, T/C [10]: 7.41% | viability, T/C [11]: 12.3% | viability, T/C [12]: 81.8% | viability, T/C [13]: 19.7% | viability, T/C [14]: 7.03% | viability, T/C [15]: 3.42% | viability, T/C [16]: 5.16% | viability, T/C [17]: 7.04% | viability, T/C [18]: 66.9% | viability, T/C [19]: 20.4% | viability, T/C [20]: 6.72% | viability, T/C [21]: 5.59% | viability, T/C [22]: 3.12% | viability, T/C [23]: 4.36% | viability, T/C [24]: 71.7% | viability, T/C [25]: 16.6% | viability, T/C [26]: 5.15% | viability, T/C [27]: 6.21% | viability, T/C [28]: 2.51% | viability, T/C [29]: 2.21% | viability, T/C [30]: 59.4% | viability, T/C [31]: 13.6% | viability, T/C [32]: 5.78% | viability, T/C [33]: 3.89% | viability, T/C [34]: 2.72% | viability, T/C [35]: 1.8%
